Experimental data reported in ChEMBL document CHEMBL1150733, “(+)-Curcuphenol and (+)-Curcudiol, Sesquiterpene Phenols from Shallow and Deep Water Collections of the Marine Sponge Didiscus flavus” (J Nat Prod, 1987).
Converted amounts (≈) assume the structure as drawn.

Key:
A549 = experiment: Cytotoxicity against human A549 cells; assay type: functional
P388 = experiment: Cytotoxicity against mouse P388 cells; assay type: functional, cell-based
Candida albicans = experiment: Antifungal activity against Candida albicans; assay type: functional
[1] = Cytotoxicity against human MDA-MB cells; assay type: functional
HCT-8 = experiment: Cytotoxicity against human HCT8 cells; assay type: functional

CC(C)=CCC[C@H](C)c1ccc(C)cc1O
MIC (A549): 10 µg/mL (≈ 45.8 µM)
IC50 (P388): 7 µg/mL (≈ 32.1 µM)
MIC (Candida albicans): 8 µg/mL (≈ 36.6 µM)
MIC [1]: 0.1 µg/mL (≈ 0.458 µM)
MIC (HCT-8): 0.1 µg/mL (≈ 0.458 µM)

Cc1ccc([C@@H](C)CCCC(C)(C)O)c(O)c1
MIC (Candida albicans): 250 µg/mL (≈ 1060 µM)
